Data: patent US20240182456A1, “2-((4-((S)-2-(4-CHLORO-2-FLUOROPHENYL)-2-METHYLBENZO[D][1,3]DIOXOL-4-YL)PIPERIDIN-1-YL)METHYL)-1-(((S)-OXETAN-2-YL)METHYL)-1H-IMIDAZOLE DERIVATIVES AS ACTIVATORS OF THE GLP1 RECEPTOR FOR THE TREATMENT OF OBESITY” (Novartis AG, priority 2021, published 2024)

Assays:
[1] = Pharmacokinetics in C57BL/6 mice (i.v. and oral); conditions: for BAV: male C57BL/6 mice, 3 mg/kg oral dose vs 1 mg/kg i.v.; for AUC(0-inf) / Vd / clearance / half-life / Cmax / Tmax: male, C57BL/6, mouse
Experimental: Blood concentration versus time profiles were obtained from 2 groups of 3 male mice. The compound was administered intravenously (i.v.) by bolus injection (5 mL/kg) at a dose of 1 mg/kg in N-methyl-2-pyrrolidone (10%) and 4% bovine serum albumins (BSA) in phosphate-buffered saline (PBS) (90%) or orally administered at a dose of 3 mg/kg (10 mL/kg) as a homogenous suspension of Water (99.4%), Tween 80 (0.1%) and methylcellulose (0.5%). Following compound administration, blood (10 μL/time point) were collected by puncture of the tail vein into ethylenediaminetetraacetic (EDTA)-coated tubes, at 0.083 (i.v. only), 0.25, 0.5, 1, 3, 7, & 24 hours post dose.
Bioanalysis: An aliquot of 10 μL of blood sample and matrix calibration standards were added to a 96-well plate. The samples were extracted using a protein precipitation procedure with addition of 80 μL acetonitrile containing internal standard. The samples were vortexed and centrifuged at 3000 rpm for 5 minutes. A 70 μL aliquot of supernatant was transferred to a clean 96-well plate and a 70 μL of water was added to each well and vortexed. Samples were analyzed and quantified by LC-MS/MS using the conditions outlined below.
• Mass Spectrometer: AP16500+ • Liquid Chromatograph: Agilent 1290 for Compound 3; Shimadzu LC30 AD for Compound 5 • Autosampler (ALS): Agilent 1290 for Compound 3; Shimadzu SIL30AC for Compound 5
• LC Column Acquity BEH C18, 50×2.1 mm, 1.7 μm • Solvent A: • 5:95:0.1 (v:v:v) Acetonitrile:Water:Formic Acid for Compound 3 • 100:0.1 (v:v) Water:Formic acid for Compound 5 • Solvent B: • 50:50:0.1 (v:v:v) Acetonitrile:Methanol:Formic Acid for Compound 3 • 100:0.1 (v:v) Acetonitrile:Formic acid for Compound 5 • Injection Volume [μL]: 1 for Compound 5; 20 for Compound 3 • Column Oven Temp. [° C.]: 50 Compound 3; 40 for Compound 5 • ALS Temp. [° C.]: 5
• Ion Source: TIS • Polarity: Positive • Temperature: 550 • Gas 1: 55 • Gas 2: 55 • Curtain Gas: 20 • Ion Spray Voltage [V]: 5500 for Compound 5; 4500 for Compound 3 • CAD Gas: 9

[2] = biological target: human GLP1R (hGLP1R) (Homo sapiens, UniProt P43220); experiment: Human GLP1R cAMP agonist assay (GloSensor); assay type: cell-based; conditions: HEK293-SNAP-hGLP1R-GloSensor cells; for Emax: cAMP, normalized to GLP1(7-36) maximum response, read-out: Emax mean; for EC50: intracellular cAMP, mean n=3 where SEM is given
Experimental: Compounds 1 to 31 were tested in the following cellular assays that measure the intracellular cAMP concentration, beta-arrestin recruitment and receptor internalization. The cAMP is generated by the activation of GLP1R. The cAMP data obtained is shown in Table 1 (where S.E.M. is included, mean n=3 independent experiments+/−S.E.M). Beta-arrestin is recruited upon activation of GLP1R and the data obtained are shown in Table 2 (mean n=2 independent experiments, +/−S.D). The extent to which the GLP1R is internalized into the cell and away from the plasma membrane following activation is also shown in Table 2 (mean n=2 independent experiments, +/−S.D). EC50 for each assay is defined as the concentration of the compound that leads to half of the maximum response (after baseline correction). Emax is defined as the maximum response observed for the test compound, normalized to the maximum response observed for the endogenous ligand (GLP1(7-36)) to GLP1R.
Human GLP1R cAMP Agonist Assay
The agonist activity of compounds was determined using the GloSensor™ cAMP Assay (Promega Corp.), which measures changes in the intracellular concentration of cAMP after ligand activation of GPCRs. The assay uses a biosensor encoded by pGloSensor™-22F cAMP plasmid (Promega, cat #E2301) with cAMP binding domains fused to a mutant form of Photinus pyralis luciferase. Binding to cAMP causes conformational changes that promote large increases in light output, which can be measured by a luminescence detector. HEK293-SNAP-hGLP1R-GloSensor cells stably overexpressing the human GLP1 receptor (hGLP1R) and pGloSensor™-22F were seeded in white 384-well poly-D-Lysine coated plates (Greiner Bio One, cat #781945) in CO2-independent media (Gibco cat #18045-088 with 1.0% FBS, 2 mM L-glutamine, penicillin and streptomycin) and incubated overnight at 37° C., 5% CO2 with humidity. The assay was started the following morning by adding an equal volume of CO2-independent media containing 4% v/v dilution of the GloSensor substrate (Promega, cat #E1291) to all wells. The cell plate was incubated at rt for 2 h in the dark. The Biomek 7 (Beckman Coulter) instrument was used for the liquid handling steps. To generate duplicate dose response curves, 3-fold serially diluted compounds were added in to the cell assay plate to a final volume of 60 μL with final concentrations ranging from 30 μM through 0.06 μM in CO2-independent media containing 0.1% BSA, 0.5 mM IBMX and 0.4% DMSO. In the same plate and assay buffer as the tested compounds, were EC100 control wells containing GLP1 (7-36) peptide (Bachem, cat #H-6795) at a final concentration of 2 nM and also EC0 control wells containing no peptide. This plate was incubated at rt in the dark for 12 min after adding the compounds to the cells. Luminescence was then measured with an Envision 2104 Multilabel reader with “TRF Light Unit, 337 nm” (PerkinElmer) using the Ultra-Sensitive protocol setting “384-well US luminescence detector” with the 384-well luminescence aperture, 0.1 seconds per well. cAMP activity was calculated as percent of the GLP1 (7-36) EC100 control wells: [(sample signal−mean EC0 signal)/(mean EC100 of GLP1 (7-36) signal−mean EC0 signal)}*100. Curve fitting for EC50 determinations was performed in the Helios module of the software package DAVID. The 4-parameter logistic model, Hill slope was used: y=Ainf+(A0−Ainf)/(1+(x/AC50)^Hill Slope) where y is the functional response; x is the compound concentration; A0 is the minimum value (at 0 dose); Ainf is the maximum value (at infinite dose); AC50 corresponds to the point of inflection (i.e. the point on the sigmoid shaped curve halfway between A0 and Ainf). The EC50 value was represented by the AC50 value calculated from Helios in μM. Emax is the maximal activity detected within the concentration range, derived from the fitted curve. […]

human GLP1R (hGLP1R), sequence (P43220 24-463): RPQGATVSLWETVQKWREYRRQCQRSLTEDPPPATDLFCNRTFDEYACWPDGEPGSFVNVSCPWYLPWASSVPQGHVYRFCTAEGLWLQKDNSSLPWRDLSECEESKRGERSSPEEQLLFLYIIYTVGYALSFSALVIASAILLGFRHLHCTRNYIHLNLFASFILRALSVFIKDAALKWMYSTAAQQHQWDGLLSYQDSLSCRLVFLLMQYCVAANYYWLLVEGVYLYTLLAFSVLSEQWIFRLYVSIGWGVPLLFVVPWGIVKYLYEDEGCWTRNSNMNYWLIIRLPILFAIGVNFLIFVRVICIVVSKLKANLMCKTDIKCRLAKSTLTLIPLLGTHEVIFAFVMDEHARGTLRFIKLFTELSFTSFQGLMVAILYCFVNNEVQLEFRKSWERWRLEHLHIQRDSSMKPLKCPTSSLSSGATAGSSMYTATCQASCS

`C[C@]1(c2ccc(Cl)cc2F)Oc2cccc(C3CCN(Cc4nc5ccc(C(=O)O)cc5n4C[C@@H]4CCO4)CC3)c2O1` [compound 1, 2-((4-((S)-2-(4-chloro-2-fluorophenyl)-2-methylbenzo[d][1,3]dioxol-4-yl)piperidin-1-yl)methyl)-1-(((S)-oxetan-2-yl)methyl)-1H-benzo[d]imidazole-6-carboxylic acid, reference compound] gave a BAV [1] of 50.7%, an AUC(0-inf) ([1]; in vivo, iv, 1 mg/kg) of 1.19 ± 0.205 µM·h and a Vd ([1]; in vivo, iv, 1 mg/kg) of 2.13 ± 0.434 L/kg. It also gave a clearance ([1]; in vivo, iv, 1 mg/kg) of 24.1 ± 4.52 mL/min/kg, a half-life ([1]; in vivo, iv, 1 mg/kg) of 75 ± 1.2 min and an AUC(0-inf) ([1]; in vivo, po, 3 mg/kg) of 1.98 µM·h. For the same compound, the Cmax ([1]; in vivo, po, 3 mg/kg) was 430 ± 53.4 nM, the Tmax ([1]; in vivo, po, 3 mg/kg) was 1 h and the half-life ([1]; in vivo, po, 3 mg/kg) was 191 min.
Work on `C[C@]1(c2ccc(Cl)cc2F)Oc2cccc(C3CCN(Cc4nc(-c5ccc(F)cc5)c(C#CC(=O)O)n4C[C@@H]4CCO4)CC3)c2O1` [Compound C-29, 3-(2-((4-((S)-2-(4-chloro-2-fluorophenyl)-2-methylbenzo[d][1,3]dioxol-4-yl)piperidin-1-yl)methyl)-4-(4-fluorophenyl)-1-(((S)-oxetan-2-yl)methyl)-1H-imidazol-5-yl)propiolic acid] yielded an Emax [2] of 104% and an EC50 [2] of 0.0473 nM.
For `Cc1nc(CN2CCC(c3cccc4c3O[C@@](C)(c3ccc(Cl)cc3F)O4)CC2)n(C[C@@H]2CCO2)c1/C=C/C(=O)O` [Compound 5], the AUC(0-inf) ([1]; whole blood, iv, 1 mg/kg) was 5.02 ± 0.629 µM·h, the Vd ([1]; whole blood, iv, 1 mg/kg) was 0.604 ± 0.02 L/kg and the clearance ([1]; whole blood, iv, 1 mg/kg) was 5.76 ± 0.711 mL/min/kg. The half-life ([1]; whole blood, iv, 1 mg/kg) was 85.2 ± 7.26 min, the AUC(0-inf) ([1]; whole blood, po, 3 mg/kg) was 7.91 ± 0.764 µM·h and the Cmax ([1]; whole blood, po, 3 mg/kg) was 1060 ± 450 nM. The Tmax ([1]; whole blood, po, 3 mg/kg) was 1 h and the half-life ([1]; whole blood, po, 3 mg/kg) was 169 ± 44.4 min.
Compound `Cc1nc(CN2CCC(c3cccc4c3O[C@@](C)(c3ccc(Cl)cc3F)O4)CC2)n(C[C@@H]2CCO2)c1C(O)CC(=O)O` (mixture of isomers) [Compound C-28, 3-(2-((4-((S)-2-(4-chloro-2-fluorophenyl)-2-methylbenzo[d][1,3]dioxol-4-yl)piperidin-1-yl)methyl)-4-methyl-1-(((S)-oxetan-2-yl)methyl)-1H-imidazol-5-yl)-3-hydroxypropanoic acid] has an Emax [2] of 110% and an EC50 [2] of 1.08 nM.
Work on `C[C@]1(c2ccc(Cl)cc2F)Oc2cccc(C3CCN(Cc4ncc(/C=C/C(=O)O)n4C[C@@H]4CCO4)CC3)c2O1` [Compound 1] yielded an AUC(0-inf) ([1]; whole blood, iv, 1 mg/kg) of 0.509 ± 0.389 µM·h, a Vd ([1]; whole blood, iv, 1 mg/kg) of 4.83 ± 1.79 L/kg and a clearance ([1]; whole blood, iv, 1 mg/kg) of 82.3 ± 51.7 mL/min/kg. It also gave a half-life ([1]; whole blood, iv, 1 mg/kg) of 63.6 ± 8.46 min, an AUC(0-inf) ([1]; whole blood, po, 3 mg/kg) of 0.538 ± 0.136 µM·h and a Cmax ([1]; whole blood, po, 3 mg/kg) of 240 ± 75.4 nM. For the same compound, the Tmax ([1]; whole blood, po, 3 mg/kg) was 0.75 ± 0.434 h and the half-life ([1]; whole blood, po, 3 mg/kg) was 73.2 ± 18.3 min.
Work on `Cc1c(C(=O)O)nc(CN2CCC(c3cccc4c3O[C@@](C)(c3ccc(Cl)cc3F)O4)CC2)n1C[C@@H]1CCO1` [Compound C-4, 2-((4-((S)-2-(4-chloro-2-fluorophenyl)-2-methylbenzo[d][1,3]dioxol-4-yl)piperidin-1-yl)methyl)-5-methyl-1-(((S)-oxetan-2-yl)methyl)-1H-imidazole-4-carboxylic acid] yielded an Emax [2] of 109% and an EC50 [2] of 8.28 nM.
`C[C@]1(c2ccc(Cl)cc2F)Oc2cccc(C3CCN(Cc4nc(C(F)(F)F)c(/C=C/C(=O)O)n4C[C@@H]4CCO4)CC3)c2O1` [Compound 8] gave a BAV [1] of 60.9 ± 5.26%, an AUC(0-inf) ([1]; in vivo, iv, 1 mg/kg) of 3.75 ± 0.149 µM·h and a Vd ([1]; in vivo, iv, 1 mg/kg) of 1.65 ± 0.025 L/kg. It also gave a clearance ([1]; in vivo, iv, 1 mg/kg) of 7 ± 0.283 mL/min/kg, a half-life ([1]; in vivo, iv, 1 mg/kg) of 181 ± 10.1 min and an AUC(0-inf) ([1]; in vivo, po, 3 mg/kg) of 6.86 ± 0.591 µM·h. For the same compound, the Cmax ([1]; in vivo, po, 3 mg/kg) was 768 ± 112 nM, the Tmax ([1]; in vivo, po, 3 mg/kg) was 1 h and the half-life ([1]; in vivo, po, 3 mg/kg) was 162 ± 12.1 min.
